From ChEMBL document CHEMBL1122779, “Antiinflammatory agents. 3. Synthesis and pharmacological evaluation of 2-amino-3-benzoylphenylacetic acid and analogues” (J Med Chem, 1984)

Tests used:
Rattus norvegicus [1] = assay: Percent change in average volume of pleural fluid at a dose of 100 mg/kg and 5-h response by Evans blue-carrageenan induced pleural effusion assay.; type: functional
Rattus norvegicus [2] = assay: Percent change in average volume of pleural fluid at a dose of 4.0 mg/kg and 5-h response by Evans blue-carrageenan induced pleural effusion assay.; type: functional
Rattus norvegicus [3] = assay: Acute gastric toxicity (single oral dose) in male fasted rats; type: organism-based, Stomach; conditions: in vivo
Mus musculus [4] = assay: Oral analgesic activity was determined in mice by the acetylcholine-induced abdominal constriction assay upon ip administration of acetylcholine bromide 5 hours following oral administration; type: functional; conditions: Abdomen
Mus musculus [5] = assay: Oral analgesic activity was determined in mice by the acetylcholine-induced abdominal constriction assay upon ip administration of acetylcholine bromide 20 min following oral administration; type: functional; conditions: Abdomen
Rattus norvegicus [6] = organism: Rattus norvegicus; assay: Evaluated for chronic potency in adjuvant arthritis assay; type: functional
Rattus norvegicus [7] = assay: Percent change in average volume of pleural fluid at a dose 4 mg/kg of indomethacin and 5-h response is evaluated by Evans blue-carrageenan induced pleural effusion assay; type: functional
Cyclooxygenase = molecular target: T1, Cyclooxygenase (Bos taurus, UniProt O62664+O62698)
T1 sequence (O62664 whole entry): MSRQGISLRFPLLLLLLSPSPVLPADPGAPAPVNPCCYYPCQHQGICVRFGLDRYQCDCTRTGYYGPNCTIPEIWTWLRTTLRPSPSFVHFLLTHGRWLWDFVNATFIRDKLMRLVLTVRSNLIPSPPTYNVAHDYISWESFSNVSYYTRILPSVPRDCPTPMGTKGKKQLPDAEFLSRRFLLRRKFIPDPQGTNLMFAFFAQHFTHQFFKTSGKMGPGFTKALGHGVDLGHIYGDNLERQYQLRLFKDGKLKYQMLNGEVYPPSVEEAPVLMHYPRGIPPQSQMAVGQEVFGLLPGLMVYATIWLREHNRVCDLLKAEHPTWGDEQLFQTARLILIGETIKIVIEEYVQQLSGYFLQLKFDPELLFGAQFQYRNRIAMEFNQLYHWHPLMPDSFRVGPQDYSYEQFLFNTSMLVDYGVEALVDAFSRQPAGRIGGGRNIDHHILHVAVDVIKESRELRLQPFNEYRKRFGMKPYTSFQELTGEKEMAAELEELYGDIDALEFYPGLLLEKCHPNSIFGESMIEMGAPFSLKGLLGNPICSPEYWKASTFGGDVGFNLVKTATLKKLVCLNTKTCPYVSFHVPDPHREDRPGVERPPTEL
T1 sequence (O62698 whole entry): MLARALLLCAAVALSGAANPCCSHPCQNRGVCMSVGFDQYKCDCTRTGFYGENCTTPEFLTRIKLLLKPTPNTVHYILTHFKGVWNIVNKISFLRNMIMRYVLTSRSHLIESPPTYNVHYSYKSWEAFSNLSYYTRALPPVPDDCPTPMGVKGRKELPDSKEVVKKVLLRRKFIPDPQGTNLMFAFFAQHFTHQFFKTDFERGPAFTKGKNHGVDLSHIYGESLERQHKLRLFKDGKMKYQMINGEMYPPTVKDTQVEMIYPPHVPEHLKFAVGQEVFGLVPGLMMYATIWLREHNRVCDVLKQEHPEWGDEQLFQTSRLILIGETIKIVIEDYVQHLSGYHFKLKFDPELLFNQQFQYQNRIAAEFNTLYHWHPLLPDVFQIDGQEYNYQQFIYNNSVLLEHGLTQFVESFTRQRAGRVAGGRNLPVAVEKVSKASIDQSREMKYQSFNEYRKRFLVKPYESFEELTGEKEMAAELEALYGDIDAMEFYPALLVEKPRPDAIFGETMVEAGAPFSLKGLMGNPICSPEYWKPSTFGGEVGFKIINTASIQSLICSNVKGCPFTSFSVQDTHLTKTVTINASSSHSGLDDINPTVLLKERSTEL
Description: Inhibition of prostaglandin G/H synthase obtained from bovine seminal vesicles.

Rattus norvegicus [8] = assay: Evaluated for chronic intestinal toxicity (multiple oral dose) in rats; type: organism-based; conditions: in vivo
Rattus norvegicus [9] = organism: Rattus norvegicus; assay: Evaluated for acute potency in pleural effusion assay; type: functional
Rattus norvegicus [10] = assay: Percent change in avg. volume of pleural fluid at a dose of 0.16 mg/kg and 5-h response is evaluated by Evans blue-carrageenan induced pleural effusion assay
[11] = Chronic therapeutic index as ratio of potency in adjuvant-induced arthritis assay to that of potency in intestinal toxicity assay; conditions: read-out: Chronic TI
[12] = Acute therapeutic index as ratio of potency in pleural effusion to that of potency in gastric toxicity assay; type: tissue-based; conditions: Stomach; read-out: Acute TI

SMILES: Nc1c(CC(=O)[O-])cccc1C(=O)c1ccc(Br)cc1Cl.[Na+]
- Change (Rattus norvegicus [1]): -37%
- Change (Rattus norvegicus [2]): -26%
- Gastric toxicity (Rattus norvegicus [3]): 5.6
- ED50 (Mus musculus [4]): 1.6 mg/kg
- ED50 (Mus musculus [5]): 0.12 mg/kg
- Potency (Rattus norvegicus [6]): 7.4
- Change (Rattus norvegicus [7]): -32%
- IC50 (Cyclooxygenase): 50 nM
- Intestinal toxicity (Rattus norvegicus [8]): 1.6
- Potency (Rattus norvegicus [9]): 1.6

SMILES: Nc1c(CC(=O)[O-])cc(F)cc1C(=O)c1ccc(Cl)cc1.[Na+]
- Change (Rattus norvegicus [2]): -37%
- Gastric toxicity (Rattus norvegicus [3]): 1.1
- ED50 (Mus musculus [4]): 1.4 mg/kg
- ED50 (Mus musculus [5]): 0.28 mg/kg
- Potency (Rattus norvegicus [6]): 1.9
- Change (Rattus norvegicus [7]): -34%
- IC50 (Cyclooxygenase): 100 nM
- Intestinal toxicity (Rattus norvegicus [8]): 0.5
- Potency (Rattus norvegicus [9]): 3.6
- Change (Rattus norvegicus [10]): -15%

SMILES: Nc1c(CC(=O)[O-])cc(Br)cc1C(=O)c1ccc(Br)cc1.[Na+]
- Change (Rattus norvegicus [1]): -34%
- Change (Rattus norvegicus [2]): -30%
- Gastric toxicity (Rattus norvegicus [3]): 1.1
- ED50 (Mus musculus [4]): 0.2 mg/kg
- ED50 (Mus musculus [5]): > 0.32 mg/kg
- Potency (Rattus norvegicus [6]): 2.5
- Change (Rattus norvegicus [7]): -33%
- IC50 (Cyclooxygenase): 800 nM
- Intestinal toxicity (Rattus norvegicus [8]): 1
- Potency (Rattus norvegicus [9]): 4.2

SMILES: CSc1ccc(C(=O)c2cc(Cl)cc(CC(=O)[O-])c2N)cc1.[Na+]
- Change (Rattus norvegicus [1]): -43%
- Change (Rattus norvegicus [2]): -43%
- Gastric toxicity (Rattus norvegicus [3]): 0.9
- ED50 (Mus musculus [4]): 1.9 mg/kg
- ED50 (Mus musculus [5]): 0.1 mg/kg
- Potency (Rattus norvegicus [6]): 0.1
- Change (Rattus norvegicus [7]): -40%
- IC50 (Cyclooxygenase): 20 nM
- Potency (Rattus norvegicus [9]): 1.8

SMILES: Nc1c(CC(=O)[O-])cccc1C(=O)c1ccc(Cl)cc1Cl.[Na+]
- Change (Rattus norvegicus [1]): -41%
- Change (Rattus norvegicus [2]): -37%
- Gastric toxicity (Rattus norvegicus [3]): 1
- ED50 (Mus musculus [4]): > 0.3 mg/kg
- ED50 (Mus musculus [5]): 0.21 mg/kg
- Potency (Rattus norvegicus [6]): 4.2
- Change (Rattus norvegicus [7]): -33%
- IC50 (Cyclooxygenase): 600 nM
- Intestinal toxicity (Rattus norvegicus [8]): 0.6
- Potency (Rattus norvegicus [9]): 5.3
- Change (Rattus norvegicus [10]): -16%

SMILES: Cc1cc(CC(=O)[O-])c(N)c(C(=O)c2ccc(Cl)cc2)c1.[Na+]
- Change (Rattus norvegicus [1]): -38%
- Change (Rattus norvegicus [2]): -32%
- Gastric toxicity (Rattus norvegicus [3]): 0.27
- ED50 (Mus musculus [4]): 0.65 mg/kg
- ED50 (Mus musculus [5]): 0.78 mg/kg
- Potency (Rattus norvegicus [6]): 0.63
- Change (Rattus norvegicus [7]): -35%
- IC50 (Cyclooxygenase): 700 nM
- Intestinal toxicity (Rattus norvegicus [8]): 0.4
- Potency (Rattus norvegicus [9]): 1.7
- Change (Rattus norvegicus [10]): 0%

SMILES: Nc1c(CC(=O)[O-])cc(F)cc1C(=O)c1ccc(Br)cc1.[Na+]
- Change (Rattus norvegicus [1]): -28%
- Change (Rattus norvegicus [2]): -28%
- Gastric toxicity (Rattus norvegicus [3]): 1.7
- ED50 (Mus musculus [4]): 0.29 mg/kg
- selectivity ratio [11]: 1.2
- ED50 (Mus musculus [5]): 0.18 mg/kg
- Potency (Rattus norvegicus [6]): 2.2
- Change (Rattus norvegicus [7]): -25%
- IC50 (Cyclooxygenase): 40 nM
- Intestinal toxicity (Rattus norvegicus [8]): 1.9
- Potency (Rattus norvegicus [9]): 8.4
- selectivity ratio [12]: 4.9

SMILES: Nc1c(CC(=O)[O-])cccc1C(=O)c1ccccc1.[Na+] [AMFENAC SODIUM]
- Change (Rattus norvegicus [1]): -35%
- Change (Rattus norvegicus [2]): -26%
- Gastric toxicity (Rattus norvegicus [3]): 0.7
- ED50 (Mus musculus [4]): > 3 mg/kg
- ED50 (Mus musculus [5]): 0.11 mg/kg
- Potency (Rattus norvegicus [6]): 1.1
- Change (Rattus norvegicus [7]): -33%
- Intestinal toxicity (Rattus norvegicus [8]): 0.4
- Potency (Rattus norvegicus [9]): 0.7
- Change (Rattus norvegicus [10]): -13%

SMILES: COc1ccc2c(c1)c(CC(=O)O)c(C)n2C(=O)c1ccc(Cl)cc1 [INDOMETHACIN]
- Change (Rattus norvegicus [2]): -33%
- Gastric toxicity (Rattus norvegicus [3]): 1
- ED50 (Mus musculus [4]): 0.22 mg/kg
- ED50 (Mus musculus [5]): 0.22 mg/kg
- Potency (Rattus norvegicus [6]): 1
- Intestinal toxicity (Rattus norvegicus [8]): 1
- Potency (Rattus norvegicus [9]): 1
- Change (Rattus norvegicus [10]): -7%

SMILES: Nc1c(CC(=O)[O-])cc(Cl)cc1C(=O)c1ccc(I)cc1.[Na+]
- Change (Rattus norvegicus [1]): -38%
- Change (Rattus norvegicus [2]): -35%
- Gastric toxicity (Rattus norvegicus [3]): 3.5
- ED50 (Mus musculus [4]): 0.24 mg/kg
- selectivity ratio [11]: 2.5
- ED50 (Mus musculus [5]): 0.24 mg/kg
- Potency (Rattus norvegicus [6]): 5.5
- Change (Rattus norvegicus [7]): -33%
- IC50 (Cyclooxygenase): 30 nM
- Intestinal toxicity (Rattus norvegicus [8]): 2.2
- Potency (Rattus norvegicus [9]): 3.8
- selectivity ratio [12]: 1.1

SMILES: Nc1c(CC(=O)[O-])cc(Cl)cc1C(=O)c1ccc(Br)cc1.[Na+]
- Change (Rattus norvegicus [1]): -38%
- Change (Rattus norvegicus [2]): -41%
- Gastric toxicity (Rattus norvegicus [3]): 1.5
- ED50 (Mus musculus [4]): 0.13 mg/kg
- selectivity ratio [11]: 1.6
- ED50 (Mus musculus [5]): 0.05 mg/kg
- Potency (Rattus norvegicus [6]): 4.6
- Change (Rattus norvegicus [7]): -40%
- IC50 (Cyclooxygenase): 20 nM
- Intestinal toxicity (Rattus norvegicus [8]): 2.9
- Potency (Rattus norvegicus [9]): 15
- selectivity ratio [12]: 10

SMILES: Nc1c(CC(=O)[O-])cc(Cl)cc1C(=O)c1ccc(Br)cc1Cl.[Na+]
- Change (Rattus norvegicus [1]): -37%
- Change (Rattus norvegicus [2]): -25%
- Gastric toxicity (Rattus norvegicus [3]): 1.2
- ED50 (Mus musculus [4]): 0.19 mg/kg
- ED50 (Mus musculus [5]): 0.66 mg/kg
- Potency (Rattus norvegicus [6]): 2.5
- Change (Rattus norvegicus [7]): -36%
- IC50 (Cyclooxygenase): 50 nM
- Intestinal toxicity (Rattus norvegicus [8]): 3.3
- Potency (Rattus norvegicus [9]): 4.9

SMILES: Cc1cc(CC(=O)O)n(C)c1C(=O)c1ccc(Cl)cc1 [ZOMEPIRAC]
- Gastric toxicity (Rattus norvegicus [3]): 0.25
- ED50 (Mus musculus [4]): 0.59 mg/kg
- selectivity ratio [11]: 1.1
- ED50 (Mus musculus [5]): 0.21 mg/kg
- Potency (Rattus norvegicus [6]): 0.67
- IC50 (Cyclooxygenase): 15000 nM
- Intestinal toxicity (Rattus norvegicus [8]): 0.63
- Potency (Rattus norvegicus [9]): 0.78
- selectivity ratio [12]: 3.1

SMILES: Cc1cc(CC(=O)[O-])c(N)c(C(=O)c2ccc(Br)cc2)c1.[Na+]
- Change (Rattus norvegicus [1]): -39%
- Change (Rattus norvegicus [2]): -31%
- Gastric toxicity (Rattus norvegicus [3]): 1.2
- ED50 (Mus musculus [4]): 0.7 mg/kg
- ED50 (Mus musculus [5]): 0.72 mg/kg
- Potency (Rattus norvegicus [6]): 1
- Change (Rattus norvegicus [7]): -36%
- IC50 (Cyclooxygenase): 700 nM
- Intestinal toxicity (Rattus norvegicus [8]): 1.1
- Potency (Rattus norvegicus [9]): 2.8
